Tests used:
[1] = test system: TNFα secretion by U937 cells; experiment: Inhibition of secretion of TNFα by lipopolysaccharide-stimulated U937 cells (ELISA); assay type: cell-based
Procedure: (§1) U937 cells, were thawed and treated according to the manufacturer's instructions. The cultures were incubated for recovery at 37° C. with 5% CO2 until 70-80% confluency was reached (visual estimation). Then, approx. 0.3×10^6 ¢/mL (determined by counting) were seeded in 96 well plates containing 200 μL/well of complete growth medium. The cells were incubated at 37° C. with 5% CO2 until 60% confluency was reached (visual estimation, typically—after 48 hr).
(§2) After the cells had reached the required confluency, the medium was replaced with pre-prepared growth medium supplemented with 1 μg/mL of lipopolysaccharides, and the test components were added, at a final volume of 200 μL/well. The following control groups were also added: Naïve cells, vehicle control, stimulation control, stimulation vehicle control. A proper blank control was subtracted from the measurements.
(§3) The cells were incubated for 24 hr. at 37° C. with 5% CO2. After the incubation, the conditioned medium of the different treatment groups was collected under standardized conditions and centrifuged at 250×g for 5 min to remove particulates. Clear supernatants were frozen at −70° C. until cytokines analyses. The secretion levels of IL-1β and TNFα (a major inflammatory marker) were quantified by commercial ELISA.

P. acnes = experiment: Propionibacterium acnes growth inhibition (absorbance at 600 nm); assay type: cell-based
Procedure: A streak plate isolation technique was performed to isolate a single homogenous colony of P. acnes. A pinch of one colony was inoculated from agar plate into U-shape falcon tube containing 4 ml of broth media. Cultures were incubated at 37° C. in reduced oxygen-conditions for 72 hours. The cultures were then diluted and grown to mid-log phase (O.D. 0.5; 600 nm) for 3 hr.
The bacteria were incubated with the test components (cannabidiol and/or extract of C. asiatica) at different concentrations in triplicate at a final volume of 200 μl in an N-pre-flushed U shape 96-well plates for 3 hr. An additional blank control group was included (media w/o bacteria). Also, a negative (bacteria without test samples) control groups was included in the assay. In addition, combinations of the these components were tested (see Table 2).
The absorbance was recorded at 600 nm. The absorbance of the blank control was subtracted from all measurements. The change in bacterial number in response to increasing test sample concentrations was plotted.

[2] = test system: PGE2 secretion by RAW 264.7 cells; experiment: Secretion of PGE2 by LPS-stimulated RAW 264.7 cells; assay type: cell-based
Procedure: RAW 264.7 cells (approx. 2.5×10^5 ¢/ml, by counting) were seeded in 96 well plates containing 170 μl/well of complete growth medium. The cells were incubated at 37° C. with 5% CO2 for 24 hr. […] In addition, naïve cells, vehicle-treated cells, Stimulated Control, and Stimulated Vehicle Control served as negative controls. Dexamethasone served as a positive control for anti-inflammatory assay. A Blank control group was included in the assay.
The spent media from all test groups were collected under standardized conditions and centrifuged at 250 g for 5 min to remove particulates. Clear supernatants were frozen at −70° C. until analysis. The secretion levels of PGE2 (an important inflammatory marker) were determined.

human sebocytes = settings: cited from earlier work
[3] = test system: IL-1β secretion by U937 cells; experiment: Inhibition of secretion of IL-1β by lipopolysaccharide-stimulated U937 cells (ELISA); assay type: cell-based
Procedure: as §1, §2, §3

[4] = Homo sapiens, U-937, each component present at 10 μg/ml, 1 μg/mL lipopolysaccharides, 24 hr
[5] = cultured human sebocytes and human skin organ culture

In the case of `C=C(C)[C@@H]1CCC(C)=C[C@H]1c1c(O)cc(CCCCC)cc1O` [Cannabidiol, cannabidiol], the inhibition at 10 µg/mL [1, 4] is reported as 48%, the “effect on secretion of TNFα (in words)” value ([1]; summary of Table 3) is reported as “attenuates” and the inhibition at 1.25 µg/mL (P. acnes; Cutibacterium acnes, Sample 1: cannabidiol 1.25 μg/ml, C. asiatica 0, 3 hr) is reported as -10.9%. For the same compound, the inhibition at 2.5 µg/mL (P. acnes; Cutibacterium acnes, Sample 2: cannabidiol 2.5 μg/ml, C. asiatica 0, 3 hr) was 5.7%, the “effect on growth of P. acnes (in words)” value (P. acnes; summary of Table 2) was “neither cannabidiol nor extract of C. asiatica significantly inhibits growth” and the inhibition at 1.25 µg/mL ([2]; Mus musculus, RAW264.7, Sample 1: cannabidiol 1.25 μg/ml alone, RAW 264.7, LPS 12.5 ng/ml) was 1.9%. For the same compound, the inhibition at 2.5 µg/mL ([2]; Mus musculus, RAW264.7, Sample 2: cannabidiol 2.5 μg/ml alone, RAW 264.7, LPS 12.5 ng/ml) was 24%, the “effect on secretion of PGE2 (in words)” value ([2]; at a concentration of 2.5 μg/ml) was “attenuates” and the “effect on lipogenic actions of arachidonic acid, linoleic acid + testosterone (in words)” value (human sebocytes; [5]) was “inhibited the lipogenic actions”. For the same compound, the “effect on sebocyte proliferation (in words)” value (human sebocytes; [5]) was “suppressed sebocyte proliferation”, the “anti-inflammatory action (in words)” value (human sebocytes; human sebocytes) was “exerted complex anti-inflammatory actions” and the inhibition at 10 µg/mL [3, 4] was 28.4%. For the same compound, the “effect on secretion of IL-1β (in words)” value ([3]; summary of Table 3) was “attenuates”.

— patent publication US20220151954A1, “TREATMENT OF SEBACEOUS GLAND DISORDERS” (priority 2019, published 2022)
